Literature values, collected in patent US20190054044A1, “ORAL DOSAGE FORM OF BOTH CLOMIPHENE ISOMERS AND METHOD OF USING SAME TO TREAT SECONDARY HYPOGONADISM AND MINIMIZE DRUG SIDE EFFECTS IN MEN” (ASPEN PARK PHARMACEUTICALS, INC., priority 2016, published 2019).
Structures can show the parent of a compound that is named as a salt. One block for each compound: values may come before it.

Legend:
[1] = men
[2] = commercial doses (25 mg PO daily or 50 mg PO every other day)
[3] = baboons

- bone mineral density [2]: decrease bone mineral density
- risk of fractures [2]: increase the risk of fractures
SMILES: CCN(CC)CCOc1ccc(C(=C(Cl)c2ccccc2)c2ccccc2)cc1 [CLOMID, clomiphene citrate]
- safety for long-term management of hypogonadism [1]: safe
- T levels ([1]; long-term): raised T levels substantially
- osteopenia/osteoporosis ([1]; long-term): improving osteopenia/osteoporosis

SMILES: CCN(CC)CCOc1ccc(/C(=C(\Cl)c2ccccc2)c2ccccc2)cc1 (single isomer, unassigned) [cis-isomer of clomiphene]
- LH secretion ([3]; range of doses tested): inhibited LH secretion
- peripheral testosterone ([3]; range of doses tested): reduced peripheral testosterone towards castrate blood levels

SMILES: CCN(CC)CCOc1ccc(/C(=C(/Cl)c2ccccc2)c2ccccc2)cc1 [ANDROXAL, trans clomiphene citrate]
- changes in visual acuity noted as an adverse event (clinical study): 0.2%
- fatigue (side effect incidence) (clinical study): 2.8%
- headache (side effect incidence) (clinical study): 6.6%
- muscle spasms (side effect incidence) (clinical study): 4%
- transient blurred vision (side effect incidence) (clinical study): 1.4%
- upper respiratory tract infections (side effect incidence) (clinical study, conducted during the cold, flu and allergy season): 11.6%
- number of skeletal fractures (treated versus placebo subjects, clinical studies): Increase in number of skeletal fractures

SMILES: CCN(CC)CCOc1ccc(/C(=C(/Cl)c2ccccc2)c2ccccc2)cc1 [ENCLOMID]
- total serum testosterone [3]: significantly and statistically raised total serum testosterone
